compound: Cc1cnc(CNC(=O)c2c(=O)c3ccc(N4CCCN(C)CC4)nc3n3c2sc2ccccc23)cn1 [CX-5461] + CC(=O)c1c(C)c2cnc(Nc3ccc(N4CCNCC4)cn3)nc2n(C2CCCC2)c1=O [Palbociclib] (partner 0.5 µM); experiment: relative viability (nuclei count vs DMSO), 5 days (fraction); higher = more cells survive; settings: first compound 0.01 µM
Method in brief: (§1)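 Values are medians from duplicate plates. Each reflects relative viability, defined as the nuclei count of treated wells over that of vehicle wells. Lung cancer cell lines in 1536-well plates were pin-tool dosed one day after seeding with one drug alone or with a fixed anchor-drug dose plus five library-drug doses (not always all listed) in √10 steps, then fixed, stained and imaged at 4× after 5 days.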

Point of comparison: NCI-H1975, relative viability 0.788. Against it:
- NCI-H2228 — lower, 0.709
- NCI-H1792 — lower, 0.608
- NCI-H1355 — lower, 0.424
- NCI-H3122 — lower, 0.192
- NCI-H1437 — lower, 0.278
- NCI-H1755 — lower, 0.434
- NCI-H2023 — lower, 0.413
- HCC-15 — lower, 0.705
- NCI-H1944 — lower, 0.335
- PC-14 — lower, 0.467
- EKVX — lower, 0.399
- LC-2-ad — lower, 0.474
- NCI-H2170 — lower, 0.412
- RERF-LC-KJ — higher, 1.03
- ABC-1 — lower, 0.675
- SK-MES-1 — lower, 0.299
- NCI-H650 — lower, 0.319
- PC-3 [JPC-3] — lower, 0.517

same assay, conditions: first compound 0.03162 µM

Point of comparison: LC-2-ad, relative viability 0.552. Against it:
- NCI-H2228 — higher, 0.612
- NCI-H1792 — higher, 0.719
- NCI-H1355 — lower, 0.467
- NCI-H3122 — lower, 0.191
- NCI-H1437 — lower, 0.328
- NCI-H1755 — lower, 0.449
- NCI-H2023 — lower, 0.373
- HCC-15 — higher, 0.759
- NCI-H1944 — lower, 0.362
- PC-14 — lower, 0.466
- EKVX — lower, 0.396
- NCI-H2170 — lower, 0.361
- NCI-H1975 — higher, 0.553
- RERF-LC-KJ — higher, 1.16
- SK-MES-1 — lower, 0.308
- NCI-H650 — lower, 0.362

same assay, conditions: first compound 0.1 µM

Point of comparison: NCI-H3122, relative viability 0.175. Against it:
- NCI-H2228 — higher, 0.563
- NCI-H1792 — higher, 0.736
- NCI-H1355 — higher, 0.41
- NCI-H1437 — higher, 0.346
- NCI-H1755 — higher, 0.431
- HCC-15 — higher, 0.808
- NCI-H1944 — higher, 0.338
- PC-14 — higher, 0.239
- EKVX — higher, 0.406
- LC-2-ad — higher, 0.42
- NCI-H2170 — higher, 0.414
- NCI-H1975 — higher, 0.665
- RERF-LC-KJ — higher, 0.713
- ABC-1 — higher, 0.879
- SK-MES-1 — higher, 0.281
- NCI-H650 — higher, 0.334
- PC-3 [JPC-3] — higher, 0.533

same assay, conditions: first compound 0.3162 µM

Point of comparison: LC-2-ad, relative viability 0.469. Against it:
- NCI-H2228 — higher, 0.73
- NCI-H1792 — higher, 0.736
- NCI-H1355 — lower, 0.417
- NCI-H3122 — lower, 0.169
- NCI-H1437 — lower, 0.308
- NCI-H1755 — lower, 0.447
- NCI-H2023 — lower, 0.309
- HCC-15 — higher, 0.725
- NCI-H1944 — lower, 0.294
- PC-14 — higher, 0.492
- NCI-H2170 — lower, 0.406
- NCI-H1975 — higher, 0.826
- RERF-LC-KJ — higher, 0.956
- ABC-1 — lower, 0.367
- SK-MES-1 — lower, 0.342
- NCI-H650 — lower, 0.336
- PC-3 [JPC-3] — higher, 0.543

same assay, conditions: first compound 1 µM

Point of comparison: NCI-H2023, relative viability 0.0908. Against it:
- NCI-H2228 — higher, 0.115
- NCI-H1792 — higher, 0.602
- NCI-H1355 — higher, 0.388
- NCI-H3122 — higher, 0.186
- NCI-H1437 — higher, 0.279
- NCI-H1755 — higher, 0.466
- HCC-15 — higher, 0.592
- NCI-H1944 — higher, 0.317
- PC-14 — lower, 0.0872
- EKVX — higher, 0.298
- LC-2-ad — higher, 0.47
- NCI-H2170 — higher, 0.422
- NCI-H1975 — higher, 0.382
- RERF-LC-KJ — higher, 0.742
- ABC-1 — higher, 0.918
- SK-MES-1 — higher, 0.249
- NCI-H650 — higher, 0.323
- PC-3 [JPC-3] — higher, 0.512

compound: O=C(Nc1cc(C(F)(F)F)cc(C(F)(F)F)c1)c1cc(Cl)ccc1O [IMD-0354] + N=C(N)NC(=N)NCCc1ccccc1 [Phenformin] (partner 250 µM); experiment: as above; settings: first compound 0.04 µM
Method in brief: as §1

Point of comparison: NCI-H3122, relative viability 0.401. Against it:
- NCI-H2228 — lower, 0.372
- NCI-H1792 — lower, 0.175
- NCI-H1355 — higher, 0.437
- NCI-H1437 — lower, 0.317
- NCI-H1755 — higher, 0.603
- NCI-H2023 — higher, 0.446
- HCC-15 — higher, 0.466
- NCI-H1944 — lower, 0.232
- PC-14 — higher, 0.817
- EKVX — lower, 0.254
- LC-2-ad — higher, 0.612
- NCI-H2170 — higher, 0.418
- NCI-H1975 — higher, 0.402
- RERF-LC-KJ — higher, 0.478
- ABC-1 — lower, 0.227
- SK-MES-1 — higher, 0.747
- NCI-H650 — higher, 0.448
- PC-3 [JPC-3] — higher, 0.508

same assay, conditions: first compound 0.1265 µM

Point of comparison: NCI-H1792, relative viability 0.225. Against it:
- NCI-H2228 — lower, 0.224
- NCI-H1355 — higher, 0.415
- NCI-H3122 — higher, 0.339
- NCI-H1437 — higher, 0.279
- NCI-H1755 — higher, 0.547
- NCI-H2023 — higher, 0.409
- HCC-15 — higher, 0.37
- NCI-H1944 — lower, 0.197
- PC-14 — higher, 0.59
- EKVX — higher, 0.234
- LC-2-ad — higher, 0.548
- NCI-H2170 — higher, 0.37
- NCI-H1975 — higher, 0.362
- RERF-LC-KJ — higher, 0.423
- ABC-1 — lower, 0.207
- SK-MES-1 — higher, 0.583
- NCI-H650 — higher, 0.451
- PC-3 [JPC-3] — higher, 0.449

same assay, conditions: first compound 0.4 µM

Point of comparison: EKVX, relative viability 0.196. Against it:
- NCI-H2228 — higher, 0.233
- NCI-H1792 — higher, 0.226
- NCI-H1355 — higher, 0.432
- NCI-H3122 — lower, 0.136
- NCI-H1437 — lower, 0.195
- NCI-H1755 — higher, 0.411
- NCI-H2023 — higher, 0.223
- HCC-15 — lower, 0.188
- NCI-H1944 — lower, 0.15
- PC-14 — higher, 0.221
- LC-2-ad — higher, 0.232
- NCI-H2170 — higher, 0.301
- NCI-H1975 — higher, 0.201
- RERF-LC-KJ — higher, 0.337
- ABC-1 — higher, 0.224
- SK-MES-1 — higher, 0.422
- NCI-H650 — higher, 0.371
- PC-3 [JPC-3] — higher, 0.459

same assay, conditions: first compound 1.265 µM

Point of comparison: SK-MES-1, relative viability 0.356. Against it:
- NCI-H2228 — lower, 0.084
- NCI-H1792 — lower, 0.167
- NCI-H1355 — lower, 0.24
- NCI-H3122 — lower, 0.064
- NCI-H1437 — lower, 0.15
- NCI-H1755 — lower, 0.273
- NCI-H2023 — lower, 0.109
- HCC-15 — lower, 0.0833
- NCI-H1944 — lower, 0.116
- PC-14 — lower, 0.107
- EKVX — lower, 0.106
- LC-2-ad — lower, 0.267
- NCI-H2170 — lower, 0.229
- NCI-H1975 — lower, 0.139
- RERF-LC-KJ — lower, 0.289
- ABC-1 — lower, 0.197
- NCI-H650 — lower, 0.234
- PC-3 [JPC-3] — lower, 0.264

same assay, conditions: first compound 4 µM

Point of comparison: NCI-H650, relative viability 0.2. Against it:
- NCI-H2228 — lower, 0.165
- NCI-H1792 — lower, 0.139
- NCI-H1355 — higher, 0.236
- NCI-H3122 — lower, 0.0975
- NCI-H1437 — the same, 0.2
- NCI-H1755 — higher, 0.252
- NCI-H2023 — lower, 0.147
- HCC-15 — lower, 0.165
- NCI-H1944 — lower, 0.148
- PC-14 — lower, 0.112
- EKVX — lower, 0.132
- LC-2-ad — lower, 0.17
- NCI-H2170 — higher, 0.221
- NCI-H1975 — lower, 0.124
- RERF-LC-KJ — higher, 0.207
- ABC-1 — lower, 0.194
- SK-MES-1 — higher, 0.241
- PC-3 [JPC-3] — higher, 0.291

Source: the supplement of paper PMC10307832
